Test results reported in publication PMC12090182, “Repurposing of the RIPK1-Selective Benzo[1,4]oxazepin-4-one Scaffold for the Development of a Type III LIMK1/2 Inhibitor” (ACS Chemical Biology, 2025).

Assays:
Type in all cases: binding
LIMK1 = LIMK1 (Homo sapiens, UniProt P53667); assay: Differential scanning fluorimetry assay for LIMK1/2; settings: LIMK1, 10 μM compound
Protocol: The assay was performed according to a previously established protocol. […] The compounds to be tested were added to a final concentration of 10 μM. […] Data were analyzed with MxPro software.

BRAF(V600E) = BRAF(V600E) (Homo sapiens, UniProt P15056, V600E); assay: biochemical; settings: 1000 nM, read-out: Percent Control
[1] = target: ABL1(F317L)-phosphorylated (Homo sapiens, UniProt P00519, F317L); assay: biochemical; settings: compound concentration 100 nM; Entrez ABL1; read-out: Percent Control
[2] = target: ABL1(F317I)-phosphorylated (Homo sapiens, UniProt P00519, F317I); assay: biochemical; settings: read-out: Percent Control
FLT3(D835V) = FLT3(D835V) (Homo sapiens, UniProt P36888, D835V); assay: biochemical; settings: 1000 nM, read-out: Percent Control
PIK3CA(H1047L) = PIK3CA(H1047L) (Homo sapiens, UniProt P42336, H1047L); assay: biochemical; settings: compound concentration 100 nM; Entrez PIK3CA; read-out: Percent Control
FLT3(N841I) = FLT3(N841I) (Homo sapiens, UniProt P36888, N841I); assay: biochemical; settings: 1000 nM, read-out: Percent Control

Chain of ABL1(F317L)-phosphorylated (P00519 whole entry F317L): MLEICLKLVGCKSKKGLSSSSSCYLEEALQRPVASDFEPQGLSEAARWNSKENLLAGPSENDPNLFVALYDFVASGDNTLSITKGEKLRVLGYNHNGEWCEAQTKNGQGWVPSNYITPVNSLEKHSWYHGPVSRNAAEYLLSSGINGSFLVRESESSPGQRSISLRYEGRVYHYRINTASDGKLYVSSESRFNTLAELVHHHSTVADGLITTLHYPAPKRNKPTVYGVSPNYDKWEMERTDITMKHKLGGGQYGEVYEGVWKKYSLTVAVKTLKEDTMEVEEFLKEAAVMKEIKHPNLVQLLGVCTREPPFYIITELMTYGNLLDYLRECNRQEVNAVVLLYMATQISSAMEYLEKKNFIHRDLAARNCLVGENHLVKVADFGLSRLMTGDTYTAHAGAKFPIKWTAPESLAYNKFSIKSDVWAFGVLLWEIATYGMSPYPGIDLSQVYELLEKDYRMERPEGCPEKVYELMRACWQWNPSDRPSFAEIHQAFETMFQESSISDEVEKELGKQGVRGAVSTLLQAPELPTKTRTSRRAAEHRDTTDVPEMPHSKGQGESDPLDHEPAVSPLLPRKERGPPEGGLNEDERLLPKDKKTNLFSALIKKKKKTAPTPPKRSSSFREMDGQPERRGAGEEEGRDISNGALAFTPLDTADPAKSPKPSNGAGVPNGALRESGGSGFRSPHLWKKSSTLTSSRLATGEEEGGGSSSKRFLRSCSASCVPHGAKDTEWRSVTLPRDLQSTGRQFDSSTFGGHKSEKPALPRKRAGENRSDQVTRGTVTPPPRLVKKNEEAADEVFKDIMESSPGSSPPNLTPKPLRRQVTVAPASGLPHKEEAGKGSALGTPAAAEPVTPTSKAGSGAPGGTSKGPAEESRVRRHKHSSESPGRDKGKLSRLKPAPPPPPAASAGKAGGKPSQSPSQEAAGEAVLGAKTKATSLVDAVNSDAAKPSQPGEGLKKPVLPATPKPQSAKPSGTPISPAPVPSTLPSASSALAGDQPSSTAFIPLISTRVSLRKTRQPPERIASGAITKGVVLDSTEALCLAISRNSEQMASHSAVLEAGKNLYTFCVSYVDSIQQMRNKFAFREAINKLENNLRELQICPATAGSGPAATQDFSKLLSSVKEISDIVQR
Chain of ABL1(F317I)-phosphorylated (P00519 whole entry F317I): as the sequence (P00519 whole entry F317L) above, with L317I counted along it
Chain of LIMK1 (P53667 330-637): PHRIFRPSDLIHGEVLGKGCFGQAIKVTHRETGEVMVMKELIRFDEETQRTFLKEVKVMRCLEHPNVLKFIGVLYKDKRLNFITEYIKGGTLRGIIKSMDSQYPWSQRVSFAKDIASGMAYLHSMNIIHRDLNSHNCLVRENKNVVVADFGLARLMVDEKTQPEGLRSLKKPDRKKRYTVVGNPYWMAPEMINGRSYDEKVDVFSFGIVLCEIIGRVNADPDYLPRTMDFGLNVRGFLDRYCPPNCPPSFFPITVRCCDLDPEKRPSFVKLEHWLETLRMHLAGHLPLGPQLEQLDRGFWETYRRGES
Chain of PIK3CA(H1047L) (P42336 whole entry H1047L): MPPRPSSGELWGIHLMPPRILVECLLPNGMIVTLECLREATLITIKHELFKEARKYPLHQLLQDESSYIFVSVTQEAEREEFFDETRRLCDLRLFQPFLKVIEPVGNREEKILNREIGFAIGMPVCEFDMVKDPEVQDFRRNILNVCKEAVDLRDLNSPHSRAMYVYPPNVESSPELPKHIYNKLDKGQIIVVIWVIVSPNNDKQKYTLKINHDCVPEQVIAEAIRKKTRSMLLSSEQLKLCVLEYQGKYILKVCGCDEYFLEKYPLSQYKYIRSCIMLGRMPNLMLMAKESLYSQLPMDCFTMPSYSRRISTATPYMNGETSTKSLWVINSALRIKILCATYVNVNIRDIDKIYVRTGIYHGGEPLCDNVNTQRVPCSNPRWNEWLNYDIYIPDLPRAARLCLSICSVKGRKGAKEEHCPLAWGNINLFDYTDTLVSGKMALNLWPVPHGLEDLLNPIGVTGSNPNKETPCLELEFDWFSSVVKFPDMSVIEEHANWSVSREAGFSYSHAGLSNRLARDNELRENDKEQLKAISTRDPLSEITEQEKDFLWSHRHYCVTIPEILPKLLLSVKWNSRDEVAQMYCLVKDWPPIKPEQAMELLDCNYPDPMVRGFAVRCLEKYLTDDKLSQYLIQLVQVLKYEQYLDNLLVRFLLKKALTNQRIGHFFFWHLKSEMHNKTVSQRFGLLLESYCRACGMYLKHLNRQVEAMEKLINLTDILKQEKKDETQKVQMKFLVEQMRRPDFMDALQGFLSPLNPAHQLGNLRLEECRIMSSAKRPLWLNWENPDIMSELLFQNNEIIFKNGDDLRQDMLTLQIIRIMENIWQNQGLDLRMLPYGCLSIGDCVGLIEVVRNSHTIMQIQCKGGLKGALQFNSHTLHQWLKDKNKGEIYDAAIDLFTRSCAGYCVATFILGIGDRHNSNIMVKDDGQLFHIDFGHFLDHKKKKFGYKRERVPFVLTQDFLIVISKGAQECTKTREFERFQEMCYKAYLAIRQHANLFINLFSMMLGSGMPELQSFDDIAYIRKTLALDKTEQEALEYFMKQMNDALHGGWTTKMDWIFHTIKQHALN
Chain of BRAF(V600E) (P15056 whole entry V600E): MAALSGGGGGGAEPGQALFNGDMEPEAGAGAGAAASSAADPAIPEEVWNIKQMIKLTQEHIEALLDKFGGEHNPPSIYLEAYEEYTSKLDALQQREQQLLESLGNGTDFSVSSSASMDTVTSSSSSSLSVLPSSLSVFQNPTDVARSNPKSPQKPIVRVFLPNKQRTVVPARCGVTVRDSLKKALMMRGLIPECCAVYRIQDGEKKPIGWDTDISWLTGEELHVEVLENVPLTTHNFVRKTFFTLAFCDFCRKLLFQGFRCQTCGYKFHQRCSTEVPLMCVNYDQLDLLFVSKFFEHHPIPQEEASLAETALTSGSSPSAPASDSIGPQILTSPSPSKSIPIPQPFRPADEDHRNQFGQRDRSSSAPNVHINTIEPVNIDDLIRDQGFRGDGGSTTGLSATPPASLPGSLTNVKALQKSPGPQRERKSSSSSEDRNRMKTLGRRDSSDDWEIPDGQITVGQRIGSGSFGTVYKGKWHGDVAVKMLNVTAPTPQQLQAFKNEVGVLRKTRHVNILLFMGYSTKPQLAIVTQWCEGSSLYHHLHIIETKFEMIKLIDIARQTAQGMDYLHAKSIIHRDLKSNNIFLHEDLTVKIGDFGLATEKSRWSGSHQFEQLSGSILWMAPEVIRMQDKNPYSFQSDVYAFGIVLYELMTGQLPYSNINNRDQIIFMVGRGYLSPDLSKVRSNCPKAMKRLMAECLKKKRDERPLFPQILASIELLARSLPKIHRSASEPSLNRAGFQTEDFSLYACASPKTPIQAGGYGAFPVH

| Compound | ΔTM (stabilization in the DSF assay) (LIMK1) | remaining activity at 1 µM (BRAF(V600E)) [%] | remaining activity at 0.1 µM [1] [%] | remaining activity at 1 µM [2] [%] | remaining activity at 1 µM (FLT3(D835V)) [%] | remaining activity at 0.1 µM (PIK3CA(H1047L)) [%] | remaining activity at 1 µM (FLT3(N841I)) [%] |
| --- | --- | --- | --- | --- | --- | --- | --- |
| CN1C(=O)[C@@H](N2CCc3c(C(N)=O)nn(Cc4ccccc4)c3C2=O)COc2ccccc21 [Compound 11] | inactive |  |  |  |  |  |  |
| CN1C(=O)[C@@H](N2CCc3c(nn(Cc4ccccc4)c3C(N)=O)C2=O)COc2cc(Cl)ccc21 [Compound 10, (S)-2-benzyl-6-(8-chloro-5-methyl-4-oxo-2,3,4,5-tetrahydrobenzo[b][1,4]oxazepin-3-yl)-7-oxo-4,5,6,7-tetrahydro-2H-pyrazolo[3,4-c]pyridine-3-carboxamide] |  | 100 | 100 | 100 | 56 | 75 | 96 |
